Results from patent publication US8802853B2, “Arylalkenyl and arylalkynyl substituted imidazoquinolines” (3M Innovative Properties Company, priority 2003, dated 2014).
Where a name gives a salt, the structure may show the parent alone.

Row | Compound | melting point
1 | CCc1nc2c(N)nc3ccccc3c2n1CC#Cc1cnccn1 (as salt: hydroiodid) [Example 5, 2-Ethyl-1-[3-(pyrazin-2-yl)-2-propynyl]-1H-imidazo[4,5-c]quinolin-4-amine] | 180 to 225 °C (dec.)
2 | CCOC(=O)c1ccc(C#CCn2c(CC)nc3c(N)nc4ccccc4c32)cc1 [Example 6, Ethyl 4-[3-(4-Amino-2-ethyl-1H-imidazo[4,5-c]quinolin-1-yl)-1-propynyl]benzoate] | 221 to 222 °C (dec.)
3 | CCc1nc2c(N)nc3ccccc3c2n1CCCC#Cc1cccs1 [Example 12, 2-Ethyl-1-[5-(thien-2-yl)-4-pentynyl]-1H-imidazo[4,5-c]quinolin-4-amine] | 175 to 190 °C (dec.)
4 | CCc1nc2c(N)nc3ccccc3c2n1CCC/C=C/c1cccnc1 [Example 17, (E)-2-Ethyl-1-[5-(pyridin-3-yl)-4-pentenyl]-1H-imidazo[4,5-c]quinolin-4-amine] | 188 to 190 °C
5 | CCc1nc2c(N)nc3ccccc3c2n1CC#Cc1cccs1 (as salt: hydroiodid) [Example 2, 2-Ethyl-1-[3-(thien-2-yl)-2-propynyl]-1H-imidazo[4,5-c]quinolin-4-amine] | 185 to 205 °C
6 | CCc1nc2c(N)nc3ccccc3c2n1CC#Cc1cccc([N+](=O)[O-])c1 [Example 11, 2-Ethyl-1-[3-(3-nitrophenyl)-2-propynyl]-1H-imidazo[4,5-c]quinolin-4-amine] | 224 to 243 °C
7 | CCc1nc2c(N)nc3ccccc3c2n1CCCC#Cc1ccc(OC)cc1 (as salt: hydroiodid) [Example 14, 2-Ethyl-1-[5-(4-methoxyphenyl)-4-pentynyl]-1H-imidazo[4,5-c]quinolin-4-amine] | 230 °C
8 | CCc1nc2c(N)nc3ccccc3c2n1CC#Cc1cccnc1 (as salt: hydroiodid) [Example 1, 2-Ethyl-1-[3-(pyridin-3-yl)-2-propynyl]-1H-imidazo[4,5-c]quinolin-4-amine] | 249 to 251 °C (dec.)
9 | CCc1nc2c(N)nc3ccccc3c2n1CCCC#Cc1cccnc1 [Example 13] | 188 to 192 °C
10 | CCc1nc2c(N)nc3ccccc3c2n1CC#Cc1ccccc1 (as salt: hydroiodid) [Example 4, 2-Ethyl-1-(3-phenyl-2-propynyl)-1H-imidazo[4,5-c]quinolin-4-amine] | 200 to 212 °C (dec.)
11 | CCc1nc2c(N)nc3ccccc3c2n1CC#Cc1ccc(OC)cc1 [Example 7, 2-Ethyl-1-[3-(4-methoxyphenyl)-2-propynyl]-1H-imidazo[4,5-c]quinolin-4-amine] | 179 to 181 °C
12 | CCc1nc2c(N)nc3ccccc3c2n1CC#Cc1ccccc1C(F)(F)F [Example 9, 2-Ethyl-1-[3-(2-trifluoromethylphenyl)-2-propynyl]-1H-imidazo[4,5-c]quinolin-4-amine] | 234 to 235 °C (dec.)
13 | CCc1nc2c(N)nc3ccccc3c2n1CCC/C=C/c1ccc(OC)cc1 [Example 18, (E)-2-Ethyl-1-[5-(4-methoxyphenyl)-4-pentenyl]-1H-imidazo[4,5-c]quinolin-4-amine] | 179 to 180 °C
14 | CCc1nc2c(N)nc3ccccc3c2n1CCCC#Cc1cccc(C(F)(F)F)c1 [Example 16, 2-Ethyl-1-[5-(3-trifluoromethylphenyl)-4-pentynyl]-1H-imidazo[4,5-c]quinolin-4-amine] | 178 to 181 °C
15 | CCc1nc2c(N)nc3ccccc3c2n1CC#Cc1cccc(C(F)(F)F)c1 [Example 8, 2-Ethyl-1-[3-(3-trifluoromethylphenyl)-2-propynyl]-1H-imidazo[4,5-c]quinolin-4-amine] | 202.5 to 203.5 °C
16 | CCc1nc2c(N)nc3ccccc3c2n1CC#Cc1ccc([N+](=O)[O-])cc1 [Example 10, 2-Ethyl-1-[3-(4-nitrophenyl)-2-propynyl]-1H-imidazo[4,5-c]quinolin-4-amine] | 190 to 206 °C
17 | CCc1nc2c(N)nc3ccccc3c2n1CCCC#Cc1ccccc1 [Example 15, 2-Ethyl-1-(5-phenyl-4-pentynyl)-1H-imidazo[4,5-c]quinolin-4-amine] | 199 to 202 °C
